Results from ChEMBL document CHEMBL3826894, “Structural modification of luteolin from Flos Chrysanthemi leads to increased tumor cell growth inhibitory activity” (Bioorg Med Chem Lett, 2016).

Columns and labels:
[1] = Cytotoxicity against human HL60 cells assessed as inhibition of cell growth at 100 uM after 72 hrs by MTT assay; type: functional; conditions: HL-60, 72 h, read-out: GI
[2] = Cytotoxicity against human HL60 cells assessed as reduction in cell viability after 72 hrs by MTT assay; type: functional, cell-based; conditions: HL-60, 72 h
[3] = system: HEK293; assay: Cytotoxicity against human HEK293 cells assessed as reduction in cell viability after 72 hrs by MTT assay; type: cell-based; conditions: HEK293, 72 h
[4] = biological target: T1, Apoptosis regulator Bcl-2 (Homo sapiens, UniProt P10415); assay: Inhibition of Bcl-2 (unknown origin) using FAM-Bid peptide as substrate at 50 uM by fluorescence polarization-based assay
[5] = biological target: T2, Bcl-2-like protein 1 (Homo sapiens, UniProt Q07817); assay: Inhibition of Bcl-XL (unknown origin) using FAM-Bid peptide as substrate at 50 uM by fluorescence polarization-based assay
[6] = biological target: T2, Bcl-2-like protein 1; assay: Inhibition of Bcl-XL (unknown origin) using FAM-Bid peptide as substrate by fluorescence polarization-based assay
[7] = biological target: T1, Apoptosis regulator Bcl-2; assay: Inhibition of Bcl-2 (unknown origin) using FAM-Bid peptide as substrate by fluorescence polarization-based assay

T1 sequence (P10415 whole entry): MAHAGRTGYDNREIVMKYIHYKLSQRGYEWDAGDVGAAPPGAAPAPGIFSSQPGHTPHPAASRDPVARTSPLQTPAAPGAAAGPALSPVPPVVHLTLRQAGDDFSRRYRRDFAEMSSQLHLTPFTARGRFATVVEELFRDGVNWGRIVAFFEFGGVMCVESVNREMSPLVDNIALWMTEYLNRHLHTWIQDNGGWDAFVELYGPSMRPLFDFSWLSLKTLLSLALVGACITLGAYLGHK
T2 sequence (Q07817 whole entry): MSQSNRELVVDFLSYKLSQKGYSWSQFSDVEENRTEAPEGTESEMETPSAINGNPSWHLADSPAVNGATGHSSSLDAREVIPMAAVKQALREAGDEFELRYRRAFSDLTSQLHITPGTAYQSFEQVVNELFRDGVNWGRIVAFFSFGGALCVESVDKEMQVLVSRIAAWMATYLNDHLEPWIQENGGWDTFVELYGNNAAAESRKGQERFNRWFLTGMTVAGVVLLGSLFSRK

Row | SMILES | inhibition of growth at 100 µM [1] [%] | IC50 [2] [µM] | IC50 [3] [µM] | inhibition [4] [%] | inhibition [5] [%] | Ki [6] [µM] | Ki [7] [µM]
1 | COc1cc(O)c2c(=O)cc(-c3cc(O)c(O)cc3Cc3cccc(C)c3)oc2c1 | 86.1 | 9.97 | 74.7 | – | – | – | –
2 | COc1cc(O)c2c(=O)cc(-c3cc(O)c(O)c(Cc4ccccc4)c3)oc2c1 | 37.5 | > 100 | – | – | – | – | –
3 | O=c1cc(-c2cc(O)c(O)c(Cc3ccc(Cl)cc3)c2)oc2cc(O)cc(O)c12 | 48.6 | > 100 | – | – | – | – | –
4 | O=c1cc(-c2cc(O)c(O)c(Cc3ccccc3)c2)oc2cc(O)cc(O)c12 | 78 | 44 | – | – | – | – | –
5 | Cc1ccc(Cc2cc(O)c(O)cc2-c2cc(=O)c3c(O)cc(O)cc3o2)cc1 | 19.9 | > 100 | – | – | – | – | –
6 | Cc1ccc(Cc2cc(-c3cc(=O)c4c(O)cc(O)cc4o3)cc(O)c2O)cc1 | 49.1 | 100 | – | – | – | – | –
7 | COc1cc(O)c2c(=O)cc(-c3cc(O)c(O)cc3Cc3ccc(Cl)cc3)oc2c1 | 92.1 | 11.7 | – | – | – | – | –
8 | COc1cc(O)c2c(=O)cc(-c3cc(O)c(O)c(Cc4ccccc4Cl)c3)oc2c1 | 80.8 | 13.9 | – | – | – | – | –
9 | Cc1cccc(Cc2cc(-c3cc(=O)c4c(O)cc(O)cc4o3)cc(O)c2O)c1 | 71.9 | 20.9 | – | – | – | – | –
10 | Cc1cc2c(C(C)C)c(O)c(O)c(C=O)c2c(O)c1-c1c(C)cc2c(C(C)C)c(O)c(O)c(C=O)c2c1O [GOSSYPOL] | 92 | 6.6 | 11 | 100 | 100 | 0.31 | –
11 | COc1cc(O)c2c(=O)cc(-c3cc(O)c(O)cc3Cc3ccccc3)oc2c1 | 82 | 14.9 | – | 100 | 100 | 2.5 | 1.3
12 | COc1cc(O)c2c(=O)cc(-c3cc(O)c(O)c(Cc4cccc(C)c4)c3)oc2c1 | 55 | 63 | – | – | – | – | –
13 | O=c1cc(-c2cc(O)c(O)cc2Cc2cccc(Cl)c2)oc2cc(O)cc(O)c12 | 65.2 | 64.4 | – | – | – | – | –
14 | COc1cc(O)c2c(=O)cc(-c3cc(O)c(O)cc3Cc3ccccc3C)oc2c1 | 90.2 | 14.9 | – | – | – | – | –
15 | COc1cc(O)c2c(=O)cc(-c3cc(O)c(O)cc3Cc3ccc(C)cc3)oc2c1 | 96.4 | 10.9 | – | – | – | – | –
16 | O=c1cc(-c2cc(O)c(O)cc2Cc2ccccc2Cl)oc2cc(O)cc(O)c12 | 73.4 | 41.8 | – | – | – | – | –
17 | O=c1cc(-c2cc(O)c(O)cc2Cc2ccccc2)oc2cc(O)cc(O)c12 | 80 | 35.9 | 90.7 | 96 | 70 | 8.4 | 4.6
18 | O=c1cc(-c2cc(O)c(O)cc2Cc2ccc(Cl)cc2)oc2cc(O)cc(O)c12 | 100 | 7.05 | – | – | – | – | –
19 | COc1cc(O)c2c(=O)cc(-c3cc(O)c(O)c(Cc4ccccc4C)c3)oc2c1 | 68.9 | 14.8 | – | – | – | – | –
20 | COc1cc(O)c2c(=O)cc(-c3cc(O)c(O)cc3Cc3ccccc3Cl)oc2c1 | 85.8 | 20.5 | – | – | – | – | –
21 | O=c1cc(-c2ccc(O)c(O)c2)oc2cc(O)cc(O)c12 [LUTEOLIN] | 44 | > 100 | – | 46 | 49 | – | –
22 | O=c1cc(-c2cc(O)c(O)c(Cc3ccccc3Cl)c2)oc2cc(O)cc(O)c12 | 30.6 | > 100 | – | – | – | – | –
23 | COc1cc(O)c2c(=O)cc(-c3cc(O)c(O)cc3Cc3cccc(Cl)c3)oc2c1 | 85.5 | 10.3 | – | – | – | – | –
24 | COc1cc(O)c2c(=O)cc(-c3cc(O)c(O)c(Cc4cccc(Cl)c4)c3)oc2c1 | 85.2 | 2.92 | – | – | – | – | –
25 | O=c1cc(-c2cc(O)c(O)c(Cc3cccc(Cl)c3)c2)oc2cc(O)cc(O)c12 | 76.4 | 28.8 | – | – | – | – | –
26 | Cc1ccccc1Cc1cc(-c2cc(=O)c3c(O)cc(O)cc3o2)cc(O)c1O | 31.5 | > 100 | – | – | – | – | –
